Test results: PubChem BioAssay (NCI)
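Assay format: 96-well plates, 48-hour exposure. TGI marks complete inhibition of growth.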

Experiments:
Assay in all cases: inhibition of tumour cell growth, NCI panel, 48 h
[1] = tested on: 786-0 renal
[2] = tested on: A498 renal
[3] = tested on: A549 NSCLC
[4] = tested on: ACHN renal
[5] = tested on: BT-549 breast
[6] = tested on: CAKI-1 renal
[7] = tested on: CCRF-CEM leukemia
[8] = tested on: COLO 205 colon
[9] = tested on: DU-145 prostate
[10] = tested on: EKVX NSCLC
[11] = tested on: HCC-2998 colon
[12] = tested on: HCT-116 colon
[13] = tested on: HCT-15 colon
[14] = tested on: HL-60(TB) leukemia
[15] = tested on: HOP-62 NSCLC
[16] = tested on: HOP-92 NSCLC
[17] = tested on: HS 578T breast
[18] = tested on: HT29 colon
[19] = tested on: IGROV1 ovarian
[20] = tested on: K-562 leukemia
[21] = tested on: KM12 colon
[22] = tested on: LOX IMVI melanoma
[23] = tested on: M14 melanoma
[24] = tested on: MALME-3M melanoma
[25] = tested on: MCF7 breast
[26] = tested on: MDA-MB-231 breast
[27] = tested on: MDA-MB-435
[28] = tested on: MDA-N
[29] = tested on: MOLT-4 leukemia
[30] = tested on: NCI-H226 lung
[31] = tested on: NCI-H23 lung
[32] = tested on: NCI-H460 lung
[33] = tested on: NCI-H522 lung
[34] = tested on: NCI/ADR-RES ovarian
[35] = tested on: OVCAR-4 ovarian
[36] = tested on: OVCAR-5 ovarian
[37] = tested on: OVCAR-8 ovarian
[38] = tested on: PC-3 prostate
[39] = tested on: RPMI-8226 leukemia
[40] = tested on: RXF 393 renal
[41] = tested on: SF-268 CNS
[42] = tested on: SF-295 CNS
[43] = tested on: SK-MEL-2 melanoma
[44] = tested on: SK-MEL-28 melanoma
[45] = tested on: SK-MEL-5 melanoma
[46] = tested on: SK-OV-3 ovarian
[47] = tested on: SN12C renal
[48] = tested on: SNB-19 CNS
[49] = tested on: SR leukemia
[50] = tested on: SW-620 colon
[51] = tested on: T-47D breast
[52] = tested on: TK-10 renal
[53] = tested on: U251 CNS
[54] = tested on: UACC-257 melanoma
[55] = tested on: UACC-62 melanoma
[56] = tested on: UO-31 renal
[57] = tested on: OVCAR-3 ovarian
[58] = tested on: SF-539 CNS

CC1=C(C)C2(C#N)C(=O)N3C(=NC(c4ccccc4)NC3c3ccccc3)C2(C#N)C(c2ccccc2)N1 (stereo not drawn)
TGI [1]: > 100 µM | TGI [2]: > 100 µM | TGI [3]: > 100 µM | TGI [4]: > 100 µM | TGI [5]: > 100 µM | TGI [6]: > 100 µM | TGI [7]: > 100 µM | TGI [8]: > 100 µM | TGI [9]: > 100 µM | TGI [10]: > 100 µM | TGI [11]: > 100 µM | TGI [12]: > 100 µM | TGI [13]: > 100 µM | TGI [14]: > 100 µM | TGI [15]: > 100 µM | TGI [16]: > 100 µM | TGI [17]: > 100 µM | TGI [18]: > 100 µM | TGI [19]: > 100 µM | TGI [20]: > 100 µM | TGI [21]: > 100 µM | TGI [22]: > 100 µM | TGI [23]: > 100 µM | TGI [24]: > 100 µM | TGI [25]: > 100 µM | TGI [26]: > 100 µM | TGI [27]: > 100 µM | TGI [28]: > 100 µM | TGI [29]: > 100 µM | TGI [30]: > 100 µM | TGI [31]: > 100 µM | TGI [32]: > 100 µM | TGI [33]: > 100 µM | TGI [34]: > 100 µM | TGI [35]: > 100 µM | TGI [36]: > 100 µM | TGI [37]: > 100 µM | TGI [38]: > 100 µM | TGI [39]: > 100 µM | TGI [40]: > 100 µM | TGI [41]: > 100 µM | TGI [42]: > 100 µM | TGI [43]: > 100 µM | TGI [44]: > 100 µM | TGI [45]: > 100 µM | TGI [46]: > 100 µM | TGI [47]: > 100 µM | TGI [48]: > 100 µM | TGI [49]: > 100 µM | TGI [50]: > 100 µM | TGI [51]: > 100 µM | TGI [52]: > 100 µM | TGI [53]: > 100 µM | TGI [54]: > 100 µM | TGI [55]: > 100 µM | TGI [56]: > 100 µM

Cc1ccc(/C(O)=C/c2nc3ccccc3[nH]c2=O)cc1
TGI [1]: 5.61 µM | TGI [2]: 58.2 µM | TGI [3]: 19.6 µM | TGI [4]: 14.5 µM | TGI [5]: 95.3 µM | TGI [6]: 14.2 µM | TGI [7]: > 100 µM | TGI [8]: > 100 µM | TGI [9]: 21.5 µM | TGI [10]: 21.1 µM | TGI [11]: > 100 µM | TGI [12]: 5.7 µM | TGI [13]: > 100 µM | TGI [14]: > 100 µM | TGI [15]: 5.16 µM | TGI [16]: 27.1 µM | TGI [17]: 6.79 µM | TGI [18]: 67.2 µM | TGI [19]: 5.92 µM | TGI [20]: > 100 µM | TGI [21]: > 100 µM | TGI [22]: 52.1 µM | TGI [23]: 73.4 µM | TGI [24]: 13.4 µM | TGI [25]: > 100 µM | TGI [26]: 15.2 µM | TGI [27]: 31.8 µM | TGI [28]: > 100 µM | TGI [29]: > 100 µM | TGI [30]: 6.4 µM | TGI [31]: 33.4 µM | TGI [32]: 37.3 µM | TGI [33]: 6.59 µM | TGI [34]: 23 µM | TGI [57]: 11.2 µM | TGI [35]: 4.04 µM | TGI [36]: > 100 µM | TGI [37]: 12.2 µM | TGI [38]: > 100 µM | TGI [39]: 47.5 µM | TGI [40]: 7.1 µM | TGI [41]: 24 µM | TGI [42]: 14.6 µM | TGI [58]: 27.6 µM | TGI [43]: 17.6 µM | TGI [44]: 23.2 µM | TGI [45]: > 100 µM | TGI [46]: 5.64 µM | TGI [47]: 34 µM | TGI [48]: 27.8 µM | TGI [49]: 72.9 µM | TGI [51]: 16.3 µM | TGI [52]: 11.1 µM | TGI [53]: 22.6 µM | TGI [54]: 87.4 µM | TGI [55]: 9.38 µM | TGI [56]: 21 µM
